The values below come from paper PMC5242521 (PLoS ONE, 2017).

Assay type in all cases: cell-based
One data set concerns the target T1, OATP1B1 (Homo sapiens, UniProt Q9Y6L6).
T1 construct: expressed in transfected cells; host or cells: CHO
T1 sequence (Q9Y6L6 1-691): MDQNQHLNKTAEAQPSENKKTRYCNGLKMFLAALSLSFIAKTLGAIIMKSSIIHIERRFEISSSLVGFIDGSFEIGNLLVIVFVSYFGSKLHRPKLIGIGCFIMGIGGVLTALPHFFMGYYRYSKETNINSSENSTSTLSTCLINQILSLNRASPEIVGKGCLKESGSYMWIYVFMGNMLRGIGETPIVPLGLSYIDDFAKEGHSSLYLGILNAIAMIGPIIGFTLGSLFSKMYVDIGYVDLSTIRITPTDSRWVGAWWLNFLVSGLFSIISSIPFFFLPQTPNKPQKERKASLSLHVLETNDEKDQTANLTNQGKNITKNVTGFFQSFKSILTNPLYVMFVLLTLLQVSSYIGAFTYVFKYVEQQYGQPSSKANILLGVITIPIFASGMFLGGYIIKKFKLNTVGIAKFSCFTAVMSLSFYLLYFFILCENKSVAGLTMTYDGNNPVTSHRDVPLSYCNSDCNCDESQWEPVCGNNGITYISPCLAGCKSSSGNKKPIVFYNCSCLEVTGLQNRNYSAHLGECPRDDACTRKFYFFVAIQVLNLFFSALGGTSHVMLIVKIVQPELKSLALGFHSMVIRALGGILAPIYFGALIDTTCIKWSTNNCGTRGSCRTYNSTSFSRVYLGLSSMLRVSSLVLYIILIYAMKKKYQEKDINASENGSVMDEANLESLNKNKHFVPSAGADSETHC
Briefly: OATP1B1 activity: E3S accumulation in CHO-OATP1B1 cells. Particulars: for inhibition at 100 μM: human, pH 7.4. Here is the method: (§1) The initial tested concentration of pyrethroids was 100 μM.

The target of the next data set is T2, MATE1 (Homo sapiens, UniProt Q96FL8).
T2 construct: host or cells: HEK293
T2 sequence (Q96FL8 1-570): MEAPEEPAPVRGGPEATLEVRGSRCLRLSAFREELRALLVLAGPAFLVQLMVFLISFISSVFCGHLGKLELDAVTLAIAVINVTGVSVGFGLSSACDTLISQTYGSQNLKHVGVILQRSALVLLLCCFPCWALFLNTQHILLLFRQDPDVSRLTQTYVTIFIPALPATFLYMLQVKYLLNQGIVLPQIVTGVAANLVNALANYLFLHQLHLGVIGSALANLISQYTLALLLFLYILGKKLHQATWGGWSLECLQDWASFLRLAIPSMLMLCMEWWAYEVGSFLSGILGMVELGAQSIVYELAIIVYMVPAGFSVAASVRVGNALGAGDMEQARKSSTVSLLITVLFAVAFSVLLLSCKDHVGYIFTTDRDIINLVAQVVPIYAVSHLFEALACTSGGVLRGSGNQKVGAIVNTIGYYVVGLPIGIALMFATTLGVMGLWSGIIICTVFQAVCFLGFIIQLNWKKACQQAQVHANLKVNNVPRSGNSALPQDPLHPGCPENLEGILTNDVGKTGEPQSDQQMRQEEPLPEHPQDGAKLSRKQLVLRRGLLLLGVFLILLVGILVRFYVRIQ
The data set is described as follows: MATE1 activity: TEA accumulation in HEK-MATE1 cells. Particulars: for inhibition at 100 μM: human, pH 8.4. How it is done: as §1

Data set [1] has as its target T3, OCT1 (Homo sapiens, UniProt O15245).
T3 sequence (O15245 1-554): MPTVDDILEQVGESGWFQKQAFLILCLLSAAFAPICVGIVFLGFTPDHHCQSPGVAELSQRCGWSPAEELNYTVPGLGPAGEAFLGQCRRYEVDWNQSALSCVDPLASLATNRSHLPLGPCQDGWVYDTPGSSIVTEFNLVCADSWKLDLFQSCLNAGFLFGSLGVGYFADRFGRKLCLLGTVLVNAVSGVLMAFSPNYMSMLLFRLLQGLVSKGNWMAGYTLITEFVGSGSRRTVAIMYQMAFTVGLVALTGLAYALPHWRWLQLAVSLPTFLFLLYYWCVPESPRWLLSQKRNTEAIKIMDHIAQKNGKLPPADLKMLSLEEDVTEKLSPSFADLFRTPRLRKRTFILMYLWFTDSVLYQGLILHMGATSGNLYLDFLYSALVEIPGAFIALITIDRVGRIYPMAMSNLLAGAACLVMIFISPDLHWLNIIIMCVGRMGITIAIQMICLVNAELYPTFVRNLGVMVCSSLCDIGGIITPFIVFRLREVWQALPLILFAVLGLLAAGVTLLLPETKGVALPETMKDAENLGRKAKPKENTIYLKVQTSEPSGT
The data set is described as follows: Trans-stimulation assay of TEA uptake in OCT1-transfected HEK293 cells. Particulars: pre-loading 60 min with 100 μM pyrethroid or 2 mM unlabeled TEA; HEK-OCT1 cells. How it is done: Trans-stimulation assays were performed as previously described. Briefly, OCT1-transfected HEK293 cells were first preloaded with 2 mM unlabeled TEA or 100 μM pyrethroid for 60 min at 37°c in the transport assay medium described above. After washing twice with PBS, cells were next re-incubated in transport assay medium containing 29 μM [1-^14C]-TEA for 5 min at 37°C. After washing twice with PBS, cells were lysed in distilled water and intracellular accumulation of [1-^14C]-TEA was then determined by scintillation counting.
Intracellular accumulation of TEA was then determined by scintillation counting. […] After washing, cells were next re-incubated with 29 μM [1-^14C]-TEA for 5 min at 37°C. Intracellular accumulation of [1-^14C]-TEA was then determined by scintillation counting.

The next data set has as its target T4, MRP2 (Homo sapiens, UniProt Q92887).
T4 construct: multidrug resistance-associated protein (MRP) 2/ABCC2-expressing human hepatoma HuH-7 cells; endogenous in cells; host or cells: HuH-7 human hepatoma cells
The data set is described as follows: MRP2 activity: CF accumulation in HuH-7 cells. The settings on record: for inhibition at 100 μM: human, pH 7.4. How it is done:
as §1

The target of data set [2] is T3, OCT1. The data set is described as follows: Dopamine accumulation in OCT1-transfected HEK293 cells. Here is the method: HEK-MOCK and HEK-OCT1 cells were incubated with transport assay medium containing 11 nM 3,4-[Ring-2,5,6-^3H]-dopamine, in the absence or presence of the reference OCT1 inhibitor verapamil or of pyrethroids for 5 min at 37°C in the transport assay medium described above. After washing twice with PBS, cells were lysed in distilled water and intracellular accumulation of dopamine was finally measured by scintillation counting.
(A) HEK-OCT1 and HEK-MOCK cells were incubated with 11 nM 3,4-[Ring-2,5,6-^3H]-dopamine in the absence or presence of the reference OCT1 inhibitor verapamil (100 μM) for 5 min at 37°C. Intracellular accumulation of 3,4-[Ring-2,5,6-^3H]-dopamine was then determined by scintillation counting. […] Intracellular accumulation of 3,4-[Ring-2,5,6-^3H]-dopamine was then determined by scintillation counting. Data are expressed as percentages of OCT1-mediated transport of dopamine in control pyrethroid-unexposed cells, determined by subtracting accumulation of dopamine in HEK-MOCK cells from that in HEK-OCT1 cells in the absence of pyrethroids, arbitrarily set at 100% and indicated by a dotted line on the graph.

Read-outs that look alike come from different tables or passages of the source.

T4 sequence (Q92887 whole entry): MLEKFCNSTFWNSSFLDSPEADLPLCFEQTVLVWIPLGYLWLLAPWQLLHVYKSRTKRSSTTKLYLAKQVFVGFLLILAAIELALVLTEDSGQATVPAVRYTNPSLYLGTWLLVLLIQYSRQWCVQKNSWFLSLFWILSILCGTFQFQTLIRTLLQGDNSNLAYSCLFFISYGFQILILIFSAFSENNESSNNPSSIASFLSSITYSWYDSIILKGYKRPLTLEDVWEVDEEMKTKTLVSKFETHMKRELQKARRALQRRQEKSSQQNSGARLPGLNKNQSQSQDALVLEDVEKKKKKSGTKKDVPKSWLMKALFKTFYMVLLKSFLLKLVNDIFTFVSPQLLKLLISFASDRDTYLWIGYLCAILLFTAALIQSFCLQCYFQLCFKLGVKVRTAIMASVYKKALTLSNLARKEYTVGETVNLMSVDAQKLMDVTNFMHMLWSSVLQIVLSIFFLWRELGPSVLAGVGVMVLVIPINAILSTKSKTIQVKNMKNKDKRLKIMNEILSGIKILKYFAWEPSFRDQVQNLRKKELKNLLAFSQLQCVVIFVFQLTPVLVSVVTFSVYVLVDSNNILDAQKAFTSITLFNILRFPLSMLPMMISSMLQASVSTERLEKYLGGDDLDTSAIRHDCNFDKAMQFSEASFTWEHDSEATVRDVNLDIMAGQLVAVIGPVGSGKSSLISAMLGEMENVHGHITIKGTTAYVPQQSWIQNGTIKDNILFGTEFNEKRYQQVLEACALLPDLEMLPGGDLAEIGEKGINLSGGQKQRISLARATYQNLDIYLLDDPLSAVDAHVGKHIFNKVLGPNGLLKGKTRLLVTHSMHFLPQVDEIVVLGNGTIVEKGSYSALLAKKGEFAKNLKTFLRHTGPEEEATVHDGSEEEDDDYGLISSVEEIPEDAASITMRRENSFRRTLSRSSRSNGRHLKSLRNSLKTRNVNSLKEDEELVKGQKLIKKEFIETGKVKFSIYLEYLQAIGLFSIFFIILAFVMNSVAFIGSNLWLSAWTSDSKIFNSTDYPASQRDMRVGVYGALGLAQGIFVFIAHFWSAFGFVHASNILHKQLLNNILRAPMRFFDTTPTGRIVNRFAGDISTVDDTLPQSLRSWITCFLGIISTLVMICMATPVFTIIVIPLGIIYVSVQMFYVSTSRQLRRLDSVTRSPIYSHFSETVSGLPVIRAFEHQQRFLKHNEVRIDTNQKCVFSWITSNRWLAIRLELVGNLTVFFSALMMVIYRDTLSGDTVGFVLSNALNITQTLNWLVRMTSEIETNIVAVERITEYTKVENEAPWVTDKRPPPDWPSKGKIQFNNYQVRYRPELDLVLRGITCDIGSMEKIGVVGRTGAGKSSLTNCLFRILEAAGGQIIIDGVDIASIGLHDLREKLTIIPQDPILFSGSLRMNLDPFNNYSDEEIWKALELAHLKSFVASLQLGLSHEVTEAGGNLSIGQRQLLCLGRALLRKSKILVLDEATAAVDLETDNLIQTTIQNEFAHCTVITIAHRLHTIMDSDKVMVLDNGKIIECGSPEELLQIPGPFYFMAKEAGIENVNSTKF

Regarding `C=CCC1=C(C)C(OC(=O)C2C(C=C(C)C)C2(C)C)CC1=O` (stereo not shown) [allethrin], the IC50 – broadly, the midpoint of a concentration-inhibition curve – against OATP1B1 was 16.5 µM; at MATE1, 50.2 µM; against MRP2, 48.2 µM. In addition, the figures for the inhibition at 100 μM against OATP1B1, on MATE1 and on MRP2 were greater than 85%, greater than 79% and 83.8%, respectively. Further, the “effect of pre-loading on radiolabeled TEA uptake (trans-stimulation assay)” value at OCT1 [1] is reported as “trans-inhibition”. At OCT1 [2] (pyrethroid 10, 100 or 300 μM, 11 nM dopamine, 5 min), the “effect on OCT1-mediated transport of dopamine” value is “significantly inhibit”.

Consider `CC(C)=CC1C(C(=O)OCN2C(=O)C3=C(CCCC3)C2=O)C1(C)C` (stereo not shown) [tetramethrin], for which the IC50 against OATP1B1 is 5.7 µM; against MATE1, 47.5 µM; against MRP2, 65.5 µM. In addition, the inhibition – broadly, the change of the read-out against control, counted positive when it falls – at 100 μM was greater than 85% on OATP1B1 (pyrethroid 100 μM, CHO-OATP1B1 cells, E3S, read-out: inhibition of OATP1B1 activity); greater than 79% on MATE1 (pyrethroid 100 μM, HEK-MATE1 cells, TEA, read-out: inhibition of MATE1 activity); 58.3% at MRP2 (pyrethroid 100 μM, HuH-7 cells, CF, read-out: inhibition of MRP2 activity). The “effect of pre-loading on radiolabeled TEA uptake (trans-stimulation assay)” value at OCT1 [1] was “trans-inhibition”. Moreover, the “effect on OCT1-mediated dopamine uptake” value at OCT1 [2] (pyrethroid 10 μM) is “failed to significantly alter”.
